For assay [1], the system named is ECa-109 cell line. Nature of the assay: Induction of apoptosis in human ECa-109 cells assessed as early apoptotic cells at 1 uM incubated for 48 hrs by annexin-V-FITC and PI staining based fluorescence microscopic analysis (reference value: 0.971 %). In kind it is functional.
In assay [2] the test system is ECa-109 cell line. Nature of the assay: Induction of apoptosis in human ECa-109 cells assessed as viable cells at 2 uM incubated for 48 hrs by annexin-V-FITC and PI staining based fluorescence microscopic analysis (reference value: 95.8 %). In kind it is functional. The conditions noted are these: read-out: Activity.
Assay [3] has as its system ECa-109 cell line. Nature of the assay: Induction of ROS-mediated apoptosis in human ECa-109 cells assessed as early apoptotic cells at 2 uM incubated for 48 hrs by annexin V-PE and 7-AAD staining based flow cytometry analysis (reference value: 2.70 %). The format is functional. In general terms: In flow cytometry, cells or beads pass a laser one at a time.
The test system of assay [4] is ECa-109 cell line. Nature of the assay: Induction of ROS-mediated apoptosis in human ECa-109 cells assessed as necrotic cells at 4 uM incubated for 48 hrs by annexin V-PE and 7-AAD staining based flow cytometry analysis (reference value: 0.729 %). The format is functional.
Assay [5] deals with ECa-109 cell line. Nature of the assay: Induction of ROS-mediated apoptosis in human ECa-109 cells assessed as early apoptotic cells at 1 uM incubated for 48 hrs in presence of NAC by annexin V-PE and 7-AAD staining based flow cytometry analysis (reference value: 1.90 %). In kind it is functional.
The test system of assay [6] is ECa-109 cell line. Nature of the assay: Induction of ROS-mediated apoptosis in human ECa-109 cells assessed as late apoptotic cells at 1 uM incubated for 48 hrs in presence of NAC by annexin V-PE and 7-AAD staining based flow cytometry analysis (reference value: 2.98 %). The format is functional.
Assay [7] concerns ECa-109 cell line. Nature of the assay: Induction of ROS-mediated apoptosis in human ECa-109 cells assessed as late apoptotic cells at 4 uM incubated for 48 hrs in presence of NAC by annexin V-PE and 7-AAD staining based flow cytometry analysis (reference value: 2.98 %). The format is functional.
In assay [8] the test system is ECa-109 cell line. Nature of the assay: Induction of ROS-mediated apoptosis in human ECa-109 cells assessed as necrotic cells at 4 uM incubated for 48 hrs in presence of NAC by annexin V-PE and 7-AAD staining based flow cytometry analysis (reference value: 1.09 %). In kind it is functional.
In assay [9] the test system is ECa-109 cell line. Nature of the assay: Induction of cell cycle arrest in human ECa-109 cells assessed as accumulation in G2/M phase at 1 uM incubated for 48 hrs by PI staining based flow cytometry analysis (reference value: 8.39 %). The format is functional.
For assay [10], the system named is ECa-109 cell line. Nature of the assay: Induction of cell cycle arrest in human ECa-109 cells assessed as accumulation in S phase at 2 uM incubated for 48 hrs by PI staining based flow cytometry analysis (reference value: 39.33 %). The format is functional.
Assay [11] deals with ECa-109 cell line. Nature of the assay: Induction of cell cycle arrest in human ECa-109 cells assessed as accumulation in G2/M phase at 2 uM incubated for 48 hrs by PI staining based flow cytometry analysis (reference value: 8.39 %). In kind it is functional.
Assay [12] deals with ECa-109 cell line. Nature of the assay: Induction of cell cycle arrest in human ECa-109 cells assessed as accumulation in G0/G1 phase at 4 uM incubated for 48 hrs by PI staining based flow cytometry analysis (reference value: 52.28 %). The format is functional.
For assay [13], the system named is ECa-109 cell line. Nature of the assay: Induction of apoptosis in human ECa-109 cells assessed as decrease in caspase-8 incubated for 48 hrs by Western blot analysis. The format is functional, cell-based. As to conditions: dose 1-4 µM. (In general: In western blotting, separated proteins are transferred to a membrane and probed.)
Assay [14] concerns ECa-109 cell line. Nature of the assay: Induction of apoptosis in human ECa-109 cells assessed as nuclear fragmentation at 1 to 4 uM incubated for 48 hrs by Hoechst staining based fluorescence microscopic analysis. The format is functional, cell-based. The conditions noted are these: dose 1-4 µM.
Assay [15] deals with ECa-109 cell line. Nature of the assay: Induction of apoptosis in human ECa-109 cells at 1 to 4 uM incubated for 48 hrs by AO/PI staining based fluorescence microscopic analysis. The format is functional, cell-based. The conditions noted are these: dose 1-4 µM.
The test system of assay [16] is SGC-7901. Nature of the assay: Induction of apoptosis in human SGC-7901 cells assessed as viable cells at 2 uM incubated for 48 hrs by annexin-V-FITC and PI staining based fluorescence microscopic analysis (reference value: 93.8 %). The format is functional. The conditions noted are these: read-out: Activity.
Assay [17] concerns SGC-7901. Nature of the assay: Induction of apoptosis in human SGC-7901 cells assessed as viable cells at 4 uM incubated for 48 hrs by annexin-V-FITC and PI staining based fluorescence microscopic analysis (reference value: 93.8 %). As to conditions: read-out: Activity. The format is functional.
Assay [18] has as its system SGC-7901. Nature of the assay: Induction of ROS-mediated apoptosis in human SGC-7901 cells assessed as early apoptotic cells at 1 uM incubated for 48 hrs in presence of NAC by annexin V-PE and 7-AAD staining based flow cytometry analysis (reference value: 1.15 %). The format is functional.
Assay [19] concerns SGC-7901. Nature of the assay: Induction of ROS-mediated apoptosis in human SGC-7901 cells assessed as late apoptotic cells at 2 uM incubated for 48 hrs in presence of NAC by annexin V-PE and 7-AAD staining based flow cytometry analysis (reference value: 3.45 %). The format is functional.
Assay [20] has as its system SGC-7901. Nature of the assay: Induction of ROS-mediated apoptosis in human SGC-7901 cells assessed as late apoptotic cells at 4 uM incubated for 48 hrs in presence of NAC by annexin V-PE and 7-AAD staining based flow cytometry analysis (reference value: 3.45 %). The format is functional.
The test system of assay [21] is SGC-7901. Nature of the assay: Induction of cell cycle arrest in human SGC-7901 cells assessed as accumulation in S phase at 1 uM incubated for 48 hrs by PI staining based flow cytometry analysis (reference value: 31.13 %). The format is functional.
Assay [22] has as its system SGC-7901. Nature of the assay: Induction of cell cycle arrest in human SGC-7901 cells assessed as accumulation in S phase at 2 uM incubated for 48 hrs by PI staining based flow cytometry analysis (reference value: 31.13 %). In kind it is functional.
In assay [23] the test system is SGC-7901. Nature of the assay: Induction of cell cycle arrest in human SGC-7901 cells assessed as accumulation in G0/G1 phase at 4 uM incubated for 48 hrs by PI staining based flow cytometry analysis (reference value: 57.39 %). In kind it is functional.
The subject of assay [24] is SGC-7901. Nature of the assay: Induction of apoptosis in human SGC-7901 cells assessed as decrease in caspase-3 incubated for 48 hrs by Western blot analysis. In kind it is functional, cell-based. As to conditions: dose 1-4 µM.
Assay [25] relates to SGC-7901. Nature of the assay: Induction of apoptosis in human SGC-7901 cells assessed as upregulation of Bax incubated for 48 hrs by Western blot analysis. In kind it is functional, cell-based. As to conditions: dose 1-4 µM.

The source made the active and inactive calls. No cut-off for these calls is given here.

`COc1ccccc1Cn1n[n+](C)c2c1C(C)(C)[C@@H]1CC[C@]3(C)[C@H](CC[C@@H]4[C@H]5[C@H]6OC[C@@]5(CCC6(C)C)CC[C@]43C)[C@@]1(C)C2.[I-]`: the Activity was found to be 17.4% in the assay on ECa-109 cell line [1]; 11.5% in the assay on ECa-109 cell line [3]; 2.19% with ECa-109 cell line [4]; 8.01% with ECa-109 cell line [5]; 13.7% in the assay with ECa-109 cell line [6]; 78.9% in the assay with ECa-109 cell line [7]. The Activity with ECa-109 cell line [8] was 3.83%; in the assay with ECa-109 cell line [9], 10.81%; in the assay on ECa-109 cell line [10], 40.19%; in the assay with ECa-109 cell line [11], 16.84%; in the assay on ECa-109 cell line [12] it was 33.47%; with ECa-109 cell line [13], “Dose-dependent effect”. For the same compound, the viability at 2 µM in the assay on ECa-109 cell line [2] is 55.1%. The outcome in the assay on ECa-109 cell line [14] and with ECa-109 cell line [15] was Active.
`C[n+]1nn(Cc2c(F)cccc2Cl)c2c1C[C@]1(C)[C@H]3CC[C@@H]4[C@H]5[C@H]6OC[C@@]5(CCC6(C)C)CC[C@@]4(C)[C@]3(C)CC[C@H]1C2(C)C.[I-]`: in the assay with SGC-7901 [16], the viability at 2 µM is 64.6%. Further, the viability at 4 µM with SGC-7901 [17] was found to be 0.494%. Moreover, the Activity was found to be 6.13% in the assay on SGC-7901 [18]; 8.6% with SGC-7901 [19]; 77.8% with SGC-7901 [20]; 14.19% in the assay with SGC-7901 [21]; 15.76% in the assay with SGC-7901 [22]; 59.38% in the assay on SGC-7901 [23]. Also, the Activity result with SGC-7901 [24] and in the assay on SGC-7901 [25] was “Dose-dependent effect” each time.

For the origin of these results see ChEMBL document CHEMBL4706545, “Antiproliferative effect of mitochondria-targeting allobetulin 1,2,3-triazolium salt derivatives and their mechanism of inducing apoptosis of cancer cells” (Eur J Med Chem, 2020).
